Experiment [1] has as its system A549 cells. Put plainly: A549-cell-implanted nude mouse model, tumor growth. Format: in vivo, nude mice. The following applies: gemcitabine alone 36 mg/kg i.p. every 4 days (FIG. 14D). The protocol: Nude mice (6 weeks old) were housed in barrier facilities on a 12-h light/dark cycle. Food and water were supplied ad libitum. On day zero, A549 or HTB-58 cells (5×10^6 cells in 0.1 ml PBS) were implanted subcutaneously (s.c.) just above the right femoral joint. After 5 or 11 days the mice were separated randomly into control groups that had received only the vehicle and FTS-treated groups. Daily FTS treatments were administered either intraperitoneally (i.p.) or orally. Tumor volumes or weights were determined as described in Barkan, B., Starinsky, S., Friedman, E., Stein, R., Kloog, Y., Clin Cancer Res 12:5533-42 (2006). Gemcitabine treatment (36 mg/kg, i.p.) was administered every 4 days.
To determine whether FTS inhibited tumor growth in vivo, experiments were conducted using a nude mouse model. The lung cancer cells were implanted s.c. above the right femoral joint and the mice were then treated with FTS. In a first experiment, the effect of i.p. administration of FTS on tumor growth in A549 cells was assessed. Treatment was started 5 days after cell implantation, by which time the tumors were palpable. Tumor volumes were determined 24 days after implantation in two groups of mice (n=8) that had received daily i.p. administration of either the vehicle (control) or 10 mg/kg FTS.
In an additional set of experiments, the A549-cell-implanted nude mouse model was used to examine the effect of orally administered FTS on tumor growth. First, cells were implanted as described above and daily oral treatment with FTS (50 mg/kg; n=6) or vehicle (n=5) was started either 11 days (FIG. 14C) or 6 days (FIG. 14D) after implantation. […] Next, the effects of orally administered FTS, alone or in combination with gemcitabine, on A549-cell tumor growth was examined (FIG. 14D). Six days after cell implantation, mice were divided into four groups (n=8 per group) and treated orally with vehicle alone (control), FTS alone (60 mg/kg), vehicle and gemcitabine (36 mg/kg, i.p. every 4 days), or FTS and gemcitabine. Treatments with gemcitabine began 1 week after FTS treatment was started.

Experiment [2] has as its system A549 cells. In words: Drug combination experiments, live cell counting. It is filed as cell-based, human. The following applies: 4 h. The protocol: In drug combination experiments, cells were grown for 2 days in the absence or in the presence of 40 μM FTS and were then treated for 4 h with gemcitabine (100 or 200 nM), cisplatin (50 or 100 nM), doxorubicin (50 or 100 nM), or paclitaxel (2.5 or 5 nM). Live cells were counted after a further 3 days of incubation with or without FTS. Experiments were performed twice in quadruplicate. To determine whether A549 cells were resistant to apoptosis, an experiment to examine the survival of human lung cancer A549 cells after exposure to a chemotherapeutic agent in the presence of FTS was performed. Thus, to determine whether treatment with FTS can increase the sensitivity of A549 cells to cytotoxic drugs, A549 cells were incubated for 48 h with DMSO (control) or with 40 μM FTS, then for 4 h with gemcitabine, cisplatin, doxorubicin, or paclitaxel at the indicated concentrations. The cells were then washed and incubated for a further 72 h with DMSO or with 40 μM FTS. Live cells were collected and counted. The numbers of cells in the drug-treated cultures, expressed as percentages of the numbers in the vehicle-treated control, are shown in FIGS. 13A-13D. Values are means±SD. *P<0.05, **P<0.01, compared to vehicle-treated control.

Each structure is given as a SMILES string.

`Cl.Nc1ccn([C@@H]2O[C@H](CO)[C@@H](O)C2(F)F)c(=O)n1` [gemcitabine, 2′-deoxy-2′,2′-difluorocytidine monohydrochloride]: in the experiment with A549 cells [1], the “effect on tumor weight” value is “significant reduction in tumor weight”. In addition, the “reduction in cell numbers” value with A549 cells [2] (gemcitabine alone 100 nM) and in the experiment with A549 cells [2] (gemcitabine alone 200 nM) was less than 11% throughout.
For `N.N.[Cl][Pt][Cl]` [cisplatin, cis-diamminedichloroplatinum(II)], the entries for the “reduction in cell numbers” value in the experiment with A549 cells [2] (cisplatin alone 50 nM) and with A549 cells [2] (cisplatin alone 100 nM) were 11±11% and 30±12.9%, respectively.

Values taken from US8232253B2, “Treatment of lung cancer” (Ramot at Tel-Aviv University Ltd., priority 2006, dated 2012).
